Literature values as cited in patent publication US20110053889A1, “Prenatal and postnatal screening and treatment of critical monosaccharide deficiencies for neurologic and immunologic function” (priority 2008, published 2011).
Where two headings read alike, the source gives them in different places. Blank lines part the entries; values can stand above or below the molecule they belong to.

Assays:
[1] = patient with LAD II (Marquardt et al., 1999)
[2] = for Estimated Safe Daily Dose (mg) in 68 kg human: 68 kg human (Gardiner, 2004); for Estimated Safe Daily Dose: based on ADME and safety data and margin-of-safety (Gardiner, 2004)
[3] = oral 50-100 mg/kg body weight, healthy volunteers (Marquardt et al., 1999)
[4] = ingested (Martin et al., 1998)
[5] = radiolabeled injection (Martin et al., 1998)
[6] = oral 0.07-0.21 g/kg body weight, humans (Alton et al., 1997)
E. coli [7] = details: topical solution applied to maternal vaginas prior to delivery; control 77% (Cox and Taylor, 1990)
E. coli [8] = details: injected, rats (Michaels et al., 1983)
[9] = rats
[10] = oral single doses (Alton et al., 1997)
[11] = oral 1 gram, humans (Talent and Gracy, 1996)

SMILES: N[C@H]1C(O)O[C@H](CO)[C@@H](O)[C@@H]1O (stereo partly shown) [Glucosamine, glucosamine]
fraction of the dose oxidized [4]: about one-half
protein-bound radioactivity in the form of sialic acid [5]: 25-30%

SMILES: O=C[C@@H](O)[C@@H](O)[C@H](O)[C@H](O)CO [Mannose, mannose]
Estimated Safe Daily Dose (mg) in 68 kg human [2]: 53,000 mg
Estimated Safe Daily Dose [2]: 779 mg/kg/day
clearance half-time [6]: about 4 hours
time to peak blood mannose concentration [6]: approximately 90 minutes
E. coli bacteremia in newborns (E. coli [7]): 25%
time to reduction of E. coli bacteriuria (E. coli [8]): ≤ 1 days
increase of glycoprotein incorporation in organs ([9]; at 1-8 hours): 2- to 6 fold
time to absorption into the serum ([9]; oral, radiolabeled): ≤ 1 h
single dose that induces osmotic diarrhea [10]: > 200 mg/kg body wt

SMILES: CC(=O)N[C@H]1C(O)O[C@H](CO)[C@@H](O)[C@@H]1O (stereo partly shown) [N-acetylglucosamine]
Estimated Safe Daily Dose (mg) in 68 kg human [2]: 1,000 mg
Estimated Safe Daily Dose [2]: 15 mg/kg/day
time to significant rise in serum levels of GlcNAc [11]: ≤ 1 h

SMILES: CC(=O)N[C@H]1[C@H]([C@H](O)[C@H](O)CO)OC(O)(C(=O)O)C[C@@H]1O (stereo partly shown) [Sialic Acid, N-acetylneuraminic acid]
Estimated Safe Daily Dose (mg) in 68 kg human [2]: 140 mg
Estimated Safe Daily Dose [2]: 2 mg/kg/day

Now from value to molecule, other results behind:

Estimated Safe Daily Dose (mg) in 68 kg human [2]: 34,000 mg
clearance half-time [3]: 100 min
time to peak serum fucose concentration [3]: 1 h
SMILES: C[C@H](O)[C@@H](O)[C@@H](O)[C@H](O)C=O [Fucose, L-fucose]
clinical outcome of oral supplementation [1]: clinical disappearance of infections and fever
Estimated Safe Daily Dose [2]: 500 mg/kg/day

Estimated Safe Daily Dose (mg) in 68 kg human [2]: 50,000 mg
SMILES: O=C[C@H](O)[C@@H](O)[C@@H](O)[C@H](O)CO [Galactose, D-galactose]
Estimated Safe Daily Dose [2]: 735 mg/kg/day

Estimated Safe Daily Dose (mg) in 68 kg human [2]: 150,000 mg
SMILES: O=C[C@H](O)[C@@H](O)[C@H](O)[C@H](O)CO [Glucose, D-glucose]
Estimated Safe Daily Dose [2]: 2,200 mg/kg/d
